How the values were obtained:
Test in all cases: increase in dead-cell fraction, 72 h; higher = more death;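 note: breast cancer cell lines in 384-well plates, stained with Hoechst plus LIVE/DEAD far red dye and imaged, cells above an LDR intensity threshold counted dead, Hoechst-negative corpses included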
[1] = compound: CC(=O)c1c(C)c2cnc(Nc3ccc(N4CCNCC4)cn3)nc2n(C2CCCC2)c1=O
[2] = compound: C=CC(=O)Nc1ccc(C(=O)Nc2[nH]nc3c2CN(C(=O)N[C@H](CN(C)C)c2ccccc2)C3(C)C)cc1 [YKL-5-124]
[3] = compound: CN(C)C/C=C/C(=O)Nc1ccc(C(=O)Nc2cccc(Nc3ncc(Cl)c(-c4c[nH]c5ccccc45)n3)c2)cc1 [THZ1]
[4] = compound: CN(C)C/C=C/C(=O)Nc1ccc(C(=O)N2CCC[C@@H](Nc3ncc(Cl)c(-c4c[nH]c5ccccc45)n3)C2)cc1 [THZ531]
[5] = compound: CCOc1cc2ncc(C#N)c(Nc3ccc(OCc4ccccn4)c(Cl)c3)c2cc1NC(=O)/C=C/CN(C)C [Neratinib/HKI272]

SKBR3
increase in dead-cell fraction ([1]; 0.01 µM): 0.015
increase in dead-cell fraction ([1]; 0.03162 µM): 0.0198
increase in dead-cell fraction ([1]; 0.1 µM): 0.0318
increase in dead-cell fraction ([1]; 0.3162 µM): 0.0437
increase in dead-cell fraction ([1]; 1 µM): 0.0364
increase in dead-cell fraction ([1]; 3.162 µM): 0.0469
increase in dead-cell fraction ([2]; 0.001 µM): 0.0064
increase in dead-cell fraction ([2]; 0.003162 µM): 0.0231
increase in dead-cell fraction ([2]; 0.01 µM): 0.0496
increase in dead-cell fraction ([2]; 0.03162 µM): 0.0434
increase in dead-cell fraction ([2]; 0.1 µM): 0.0537
increase in dead-cell fraction ([2]; 0.3162 µM): 0.0626
increase in dead-cell fraction ([2]; 1 µM): 0.0336
increase in dead-cell fraction ([2]; 3.162 µM): 0.0844
increase in dead-cell fraction ([2]; 10 µM): 0.316
increase in dead-cell fraction ([3]; 0.0001 µM): -0.0092
increase in dead-cell fraction ([3]; 0.0003162 µM): 0.0042
increase in dead-cell fraction ([3]; 0.001 µM): 0.0058
increase in dead-cell fraction ([3]; 0.003162 µM): -0.0046
increase in dead-cell fraction ([3]; 0.01 µM): -0.0004
increase in dead-cell fraction ([3]; 0.03162 µM): 0.0505
increase in dead-cell fraction ([3]; 0.1 µM): 0.237
increase in dead-cell fraction ([3]; 0.3162 µM): 0.33
increase in dead-cell fraction ([3]; 1 µM): 0.491
increase in dead-cell fraction ([4]; 0.0001 µM): 0.0012
increase in dead-cell fraction ([4]; 0.0003162 µM): 0.0021
increase in dead-cell fraction ([4]; 0.001 µM): 0.0015
increase in dead-cell fraction ([4]; 0.003162 µM): -0.0089
increase in dead-cell fraction ([4]; 0.01 µM): -0.0005
increase in dead-cell fraction ([4]; 0.03162 µM): 0.053
increase in dead-cell fraction ([4]; 0.1 µM): 0.155
increase in dead-cell fraction ([4]; 0.3162 µM): 0.175
increase in dead-cell fraction ([4]; 1 µM): 0.338
increase in dead-cell fraction ([5]; 0.0003162 µM): 0.0178
increase in dead-cell fraction ([5]; 0.001 µM): 0.0381
increase in dead-cell fraction ([5]; 0.003162 µM): 0.111
increase in dead-cell fraction ([5]; 0.01 µM): 0.156
increase in dead-cell fraction ([5]; 0.03162 µM): 0.222
increase in dead-cell fraction ([5]; 0.1 µM): 0.24
increase in dead-cell fraction ([5]; 0.3162 µM): 0.303
increase in dead-cell fraction ([5]; 1 µM): 0.362
increase in dead-cell fraction ([5]; 3.162 µM): 0.364

Source: the supplement of paper PMC9663587
